Patent publication US8471005B2 (Cephalon, Inc., priority 2008, dated 2013)
Read-outs that look alike come from different tables or passages of the source.

Assays:
ALK = biological target: T1, ALK (Homo sapiens, UniProt Q9UM73); experiment: ALK Kinase Assay (ELISA/TRF, PLC-γ substrate); assay type: biochemical; details: read-out: ALK Potency
T1 construct: host or cells: baculovirus expression system
Method in brief: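 First, plates are coated with substrate (phospholipase C-γ, 10 μg/mL, TBS). Next, 30 ng/ml ALK initiates phosphorylation for 15 min at 37° C. Then Eu-N1 PT66 antibody is added for detection, and a nonlinear dose-response fit of percent inhibition yields IC50.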

JAK2 = biological target: T2, JAK2 (Homo sapiens, UniProt O60674); experiment: Recombinant Human JAK2 Kinase Assay (TRF); assay type: biochemical; details: read-out: JAK2 Potency
T2 construct: host or cells: baculovirus expression system
Method in brief: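 Kinase activity of baculovirus-expressed JAK2 is followed on a surface-immobilised biotinylated peptide, with the reaction run for 20 min at room temperature in buffer containing 0.2 μM ATP and manganese. Phosphorylation is read with Eu-N1 PY100 antibody.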

[1] = ALK kinase inhibition, 1 μM ATP
[2] = JAK2 kinase inhibition, 0.2 μM ATP

T1 sequence (Q9UM73 19-1620): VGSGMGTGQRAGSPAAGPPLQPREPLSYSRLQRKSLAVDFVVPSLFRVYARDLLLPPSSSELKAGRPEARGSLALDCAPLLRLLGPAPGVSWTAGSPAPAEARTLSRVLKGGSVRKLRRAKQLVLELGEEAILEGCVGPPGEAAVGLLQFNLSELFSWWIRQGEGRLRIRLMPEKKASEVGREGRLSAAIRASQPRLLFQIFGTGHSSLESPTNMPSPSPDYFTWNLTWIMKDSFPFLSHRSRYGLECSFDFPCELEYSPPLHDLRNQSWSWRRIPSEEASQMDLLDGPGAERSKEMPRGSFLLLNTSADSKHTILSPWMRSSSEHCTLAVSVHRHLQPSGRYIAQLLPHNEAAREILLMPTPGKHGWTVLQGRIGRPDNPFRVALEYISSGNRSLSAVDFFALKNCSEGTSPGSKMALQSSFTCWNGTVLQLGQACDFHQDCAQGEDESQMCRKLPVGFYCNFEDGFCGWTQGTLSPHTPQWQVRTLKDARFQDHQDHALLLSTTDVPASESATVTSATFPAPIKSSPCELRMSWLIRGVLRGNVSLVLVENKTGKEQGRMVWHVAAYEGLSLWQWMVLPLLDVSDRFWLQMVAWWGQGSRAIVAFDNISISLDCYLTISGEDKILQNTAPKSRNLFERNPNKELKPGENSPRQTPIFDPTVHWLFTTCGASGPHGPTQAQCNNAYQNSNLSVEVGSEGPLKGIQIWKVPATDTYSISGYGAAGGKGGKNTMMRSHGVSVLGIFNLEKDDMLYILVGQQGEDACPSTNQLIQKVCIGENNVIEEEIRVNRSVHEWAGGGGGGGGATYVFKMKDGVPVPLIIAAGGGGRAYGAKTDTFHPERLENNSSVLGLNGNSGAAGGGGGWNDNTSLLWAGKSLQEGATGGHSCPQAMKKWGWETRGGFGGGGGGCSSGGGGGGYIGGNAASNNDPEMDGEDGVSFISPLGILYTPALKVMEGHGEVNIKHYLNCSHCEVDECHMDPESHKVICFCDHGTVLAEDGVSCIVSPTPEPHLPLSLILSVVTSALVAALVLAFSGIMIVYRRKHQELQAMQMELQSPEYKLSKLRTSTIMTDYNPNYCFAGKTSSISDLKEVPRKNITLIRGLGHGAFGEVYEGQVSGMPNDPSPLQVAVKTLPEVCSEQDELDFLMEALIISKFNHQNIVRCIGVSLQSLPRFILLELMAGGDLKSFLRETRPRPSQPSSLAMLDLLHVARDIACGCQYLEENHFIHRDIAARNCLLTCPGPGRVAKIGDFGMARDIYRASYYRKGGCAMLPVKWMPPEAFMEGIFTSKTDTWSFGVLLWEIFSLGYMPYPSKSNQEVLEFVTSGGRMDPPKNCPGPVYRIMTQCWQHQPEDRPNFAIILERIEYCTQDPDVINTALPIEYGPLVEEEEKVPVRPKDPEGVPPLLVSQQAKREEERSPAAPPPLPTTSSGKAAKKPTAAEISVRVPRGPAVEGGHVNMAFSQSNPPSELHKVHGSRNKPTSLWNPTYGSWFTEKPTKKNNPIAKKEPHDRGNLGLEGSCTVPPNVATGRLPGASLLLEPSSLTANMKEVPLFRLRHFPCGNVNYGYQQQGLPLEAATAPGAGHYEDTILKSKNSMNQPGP
T2 sequence (O60674 whole entry): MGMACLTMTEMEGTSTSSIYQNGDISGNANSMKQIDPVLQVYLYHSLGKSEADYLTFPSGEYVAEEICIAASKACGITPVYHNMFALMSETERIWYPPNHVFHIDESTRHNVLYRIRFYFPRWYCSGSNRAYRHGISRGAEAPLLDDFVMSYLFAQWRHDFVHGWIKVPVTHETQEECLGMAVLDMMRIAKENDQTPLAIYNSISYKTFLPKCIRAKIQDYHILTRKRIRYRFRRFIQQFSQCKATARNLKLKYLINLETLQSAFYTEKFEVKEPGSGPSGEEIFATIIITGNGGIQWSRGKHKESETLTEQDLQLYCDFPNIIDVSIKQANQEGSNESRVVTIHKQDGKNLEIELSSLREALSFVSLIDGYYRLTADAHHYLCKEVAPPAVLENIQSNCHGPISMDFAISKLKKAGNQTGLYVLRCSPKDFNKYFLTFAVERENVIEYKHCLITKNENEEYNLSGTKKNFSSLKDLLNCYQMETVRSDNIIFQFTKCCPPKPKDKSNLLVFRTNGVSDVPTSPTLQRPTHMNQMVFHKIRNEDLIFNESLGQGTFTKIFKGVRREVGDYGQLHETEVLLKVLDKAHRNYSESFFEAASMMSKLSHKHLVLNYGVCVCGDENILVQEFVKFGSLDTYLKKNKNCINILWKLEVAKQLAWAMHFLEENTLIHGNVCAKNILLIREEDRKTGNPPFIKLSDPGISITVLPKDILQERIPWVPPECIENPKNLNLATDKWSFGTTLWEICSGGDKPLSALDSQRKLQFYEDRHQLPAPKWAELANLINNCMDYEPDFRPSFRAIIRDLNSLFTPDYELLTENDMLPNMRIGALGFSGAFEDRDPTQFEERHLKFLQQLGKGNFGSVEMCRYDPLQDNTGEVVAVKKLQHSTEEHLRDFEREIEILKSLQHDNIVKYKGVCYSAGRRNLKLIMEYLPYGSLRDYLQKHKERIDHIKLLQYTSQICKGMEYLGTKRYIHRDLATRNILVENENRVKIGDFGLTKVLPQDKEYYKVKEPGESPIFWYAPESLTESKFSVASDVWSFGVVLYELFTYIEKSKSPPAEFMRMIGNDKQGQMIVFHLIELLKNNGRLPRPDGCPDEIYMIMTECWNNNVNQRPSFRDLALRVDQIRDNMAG

Compound	IC50 (ALK; ALK Kinase Inhibition)	IC50 (JAK2; JAK2 Kinase Inhibition)	IC50 (ALK; [1])	IC50 (JAK2; [2])
COCCN1CCc2ccc(Nc3ncc4ccc(-c5ccccc5S(=O)(=O)N5CCCC5)n4n3)cc2CC1 [Example 32, [3-(2-Methoxy-ethyl)-2,3,4,5-tetrahydro-1H-benzo[d]azepin-7-yl]-{7-[2-(pyrrolidine-1-sulfonyl)-phenyl]-pyrrolo[2,1-f][1,2,4]triazin-2-yl}-amine]	0.1 to 1 µM	< 0.1 µM	–	–
[7-(2-Methoxy-phenyl)-pyrrolo[2,1-f][1,2,4]triazin-2-yl]-(2-methyl-1,2,3,4-tetrahydro-isoquinolin-7-yl)-amine [Example 984]	–	–	0.1 to 1 µM	< 0.1 µM
CC(C)(C)NS(=O)(=O)c1cccc(-c2ccc3cnc(Nc4ccc(C5CCC(N6CCOCC6)CC5)cc4)nn23)c1 (centres unmarked) [Example 565, N-tert-Butyl-3-{2-[4-(4-morpholin-4-yl-cyclohexyl)-phenylamino]-pyrrolo[2,1-f][1,2,4]triazin-7-yl}-benzenesulfonamide]	–	–	0.1 to 1 µM	< 0.1 µM
C1=C(c2ccc3cnc(Nc4ccc(N5CCOCC5)cc4)nn23)CCSC1 [Example 613, [7-(3,6-Dihydro-2H-thiopyran-4-yl)-pyrrolo[2,1-f][1,2,4]triazin-2-yl]-(4-morpholin-4-yl-phenyl)-amine]	–	–	1 to 10 µM	< 0.1 µM
COc1ccc(Cl)cc1-c1ccc2cnc(Nc3cccc(N4CCN(C[C@H](C)O)CC4)c3)nn12 [Example 211, (S)-1-(4-{3-[7-(5-Chloro-2-methoxy-phenyl)-pyrrolo[2,1-f][1,2,4]triazin-2-ylamino]-phenyl}-piperazin-1-yl)-propan-2-ol]	< 0.1 µM	< 0.1 µM	–	–
COc1cc(N2CCCC(N3CCN(S(C)(=O)=O)CC3)C2)ccc1Nc1ncc2ccc(-c3ccccc3OC)n2n1 (centres unmarked) [Example 233, {4-[3-(4-Methanesulfonyl-piperazin-1-yl)-piperidin-1-yl]-2-methoxy-phenyl}-[7-(2-methoxy-phenyl)-pyrrolo[2,1-f][1,2,4]triazin-2-yl]-amine]	< 0.1 µM	< 0.1 µM	–	–
COc1cc(C2CCCN(C)C2)ccc1Nc1ncc2ccc(-c3ccccc3N(C)S(C)(=O)=O)n2n1 (centres unmarked) [Example 806, N-(2-{2-[2-Methoxy-4-(1-methyl-piperidin-3-yl)-phenylamino]-pyrrolo[2,1-f][1,2,4]triazin-7-yl}-phenyl)-N-methyl-methanesulfonamide]	–	–	< 0.1 µM	0.1 to 1 µM
COc1cc(N2CCC(N3CC[C@@H](O)C3)CC2)ccc1Nc1ncc2ccc(-c3ccccc3OC)n2n1 [Example 479, (R)-1-(1-{3-Methoxy-4-[7-(2-methoxy-phenyl)-pyrrolo[2,1-f][1,2,4]triazin-2-ylamino]-phenyl}-piperidin-4-yl)-pyrrolidin-3-ol]	–	–	< 0.1 µM	< 0.1 µM
COc1ccc(Cl)cc1-c1ccc2cnc(Nc3cccc(C(=O)N4CCN(C)CC4)c3)nn12 [Example 339, {3-[7-(5-Chloro-2-methoxy-phenyl)-pyrrolo[2,1-f][1,2,4]triazin-2-ylamino]-phenyl}-(4-methyl-piperazin-1-yl)-methanone]	0.1 to 1 µM	< 0.1 µM	–	–
COc1ccc(-c2ccc3cnc(Nc4cccc(NC(=O)CN(C)C)c4)nn23)cn1 [Example 899, 2-Dimethylamino-N-{3-[7-(6-methoxy-pyridin-3-yl)-pyrrolo[2,1-f][1,2,4]triazin-2-ylamino]-phenyl}-acetamide]	–	–	0.1 to 1 µM	< 0.1 µM
COCCN1CCc2ccc(Nc3ncc4ccc(-c5ccccc5S(=O)(=O)N(C)C)n4n3)cc2CC1 [Example 31, 2-{2-[3-(2-Methoxy-ethyl)-2,3,4,5-tetrahydro-1H-benzo[d]azepin-7-ylamino]-pyrrolo[2,1-f][1,2,4]triazin-7-yl}-N,N-dimethyl-benzenesulfonamide]	0.1 to 1 µM	< 0.1 µM	–	–
CN(c1ccccc1-c1ccc2cnc(Nc3ccc4nc(CO)[nH]c4c3)nn12)S(C)(=O)=O [Example 1071, N-{2-[2-(2-Hydroxymethyl-3H-benzoimidazol-5-ylamino)-pyrrolo[2,1-f][1,2,4]triazin-7-yl]-phenyl}-N-methyl-methanesulfonamide]	–	–	0.1 to 1 µM	< 0.1 µM
COc1ncccc1-c1ccc2cnc(Nc3ccc(N4CCN(C)CC4)cc3)nn12 [Example 22, [7-(2-Methoxy-pyridin-3-yl)-pyrrolo[2,1-f][1,2,4]triazin-2-yl]-[4-(4-methyl-piperazin-1-yl)-phenyl]-amine]	< 0.1 µM	< 0.1 µM	–	–
COc1ccc(Cl)cc1-c1ccc2cnc(Nc3ccc(N4CCN(C)CC4)cc3)nn12 [Example 17, [7-(5-Chloro-2-methoxy-phenyl)-pyrrolo[2,1-f][1,2,4]triazin-2-yl]-[4-(4-methyl-piperazin-1-yl)-phenyl]-amine]	< 0.1 µM	< 0.1 µM	–	–
CC(C)S(=O)(=O)c1ccc(-c2ccc3cnc(Nc4ccc(N5CCOCC5)cc4)nn23)cc1 [Example 199, (4-Morpholin-4-yl-phenyl)-{7-[4-(propane-2-sulfonyl)-phenyl]-pyrrolo[2,1-f][1,2,4]triazin-2-yl}-amine]	1 to 10 µM	< 0.1 µM	–	–
COc1cc(C2CCN(CCF)CC2)ccc1Nc1ncc2ccc(-c3ccccc3OC)n2n1 [Example 791, {4-[1-(2-Fluoro-ethyl)-piperidin-4-yl]-2-methoxy-phenyl}-[7-(2-methoxy-phenyl)-pyrrolo[2,1-f][1,2,4]triazin-2-yl]-amine]	–	–	< 0.1 µM	0.1 to 1 µM
O=C(O)c1ccc(-c2ccc3cnc(Nc4ccc(N5CCOCC5)cc4)nn23)cc1 [Example 45, 4-[2-(4-Morpholin-4-yl-phenylamino)-pyrrolo[2,1-f][1,2,4]triazin-7-yl]-benzoic acid]	> 10 µM	< 0.1 µM	–	–
COc1ccc(Nc2ncc3ccc(-c4cc(Cl)ccc4OC)n3n2)cc1 [Example 153, [7-(5-Chloro-2-methoxy-phenyl)-pyrrolo[2,1-f][1,2,4]triazin-2-yl]-(4-methoxy-phenyl)-amine]	> 10 µM	< 0.1 µM	–	–

Other lines, results leading:

IC50 (ALK; ALK Kinase Inhibition)	IC50 (JAK2; JAK2 Kinase Inhibition)	IC50 (ALK; [1])	IC50 (JAK2; [2])	Compound
< 0.1 µM	0.1 to 1 µM	–	–	COc1cc(N2CCCC(N3CCN(C)CC3)C2)ccc1Nc1ncc2ccc(-c3ccccc3OC)n2n1 (single isomer, unassigned) [Example 1442, {2-Methoxy-4-[3-(4-methyl-piperazin-1-yl)-piperidin-1-yl]-phenyl}-[7-(2-methoxy-phenyl)-pyrrolo[2,1-f][1,2,4]triazin-2-yl]-amine]
1 to 10 µM	< 0.1 µM	–	–	COc1cccc(Nc2ncc3ccc(-c4cccc(S(=O)(=O)NC(C)(C)C)c4)n3n2)c1 [Example 1396, N-tert-Butyl-3-[2-(3-methoxy-phenylamino)-pyrrolo[2,1-f][1,2,4]triazin-7-yl]-benzenesulfonamide]
–	–	> 10 µM	< 0.1 µM	CS(=O)(=O)c1ccc(-c2ccc3cnc(Nc4ccc5c(c4)NC(=O)C(NC(=O)C(F)(F)F)CC5)nn23)cc1 (centres unmarked) [Example 1174, 2,2,2-Trifluoro-N-{8-[7-(4-methanesulfonyl-phenyl)-pyrrolo[2,1-f][1,2,4]triazin-2-ylamino]-2-oxo-2,3,4,5-tetrahydro-1H-benzo[b]azepin-3-yl}-acetamide]
1 to 10 µM	< 0.1 µM	–	–	CC(=O)N1CCCC(C)(C)c2ccc(Nc3ncc4ccc(-c5cccc(S(=O)(=O)NC(C)(C)C)c5)n4n3)cc21 [Example 1369, 3-[2-(1-Acetyl-5,5-dimethyl-2,3,4,5-tetrahydro-1H-benzo[b]azepin-8-ylamino)-pyrrolo[2,1-f][1,2,4]triazin-7-yl]-N-tert-butyl-benzenesulfonamide]
0.1 to 1 µM	< 0.1 µM	–	–	CN1CCN(Cc2nc3ccc(Nc4ncc5ccc(-c6ccccc6N(C)S(C)(=O)=O)n5n4)cc3[nH]2)CC1 [Example 1525, N-Methyl-N-(2-{2-[2-(4-methyl-piperazin-1-ylmethyl)-3H-benzimidazol-5-ylamino]-pyrrolo[2,1-f][1,2,4]triazin-7-yl}-phenyl)-methanesulfonamide]
–	–	0.1 to 1 µM	< 0.1 µM	COc1ccc(-c2ccc3cnc(Nc4ccc(N5CCN(CCO)CC5)cc4)nn23)cn1 [Example 1104, 2-(4-{4-[7-(6-Methoxy-pyridin-3-yl)-pyrrolo[2,1-f][1,2,4]triazin-2-ylamino]-phenyl}-piperazin-1-yl)-ethanol]
–	–	0.1 to 1 µM	< 0.1 µM	Cn1ncc2cc(Nc3ncc4ccc(-c5cccc(S(=O)(=O)NC(C)(C)C)c5)n4n3)ccc21 [Example 1316, N-tert-Butyl-3-[2-(1-methyl-1H-indazol-5-ylamino)-pyrrolo[2,1-f][1,2,4]triazin-7-yl]-benzenesulfonamide]
< 0.1 µM	0.1 to 1 µM	–	–	COc1cc2c(cc1Nc1ncc3ccc(-c4ccccc4OC)n3n1)C(=O)CC1(CCN(C)CC1)O2 [Example 1491]
–	–	< 0.1 µM	< 0.1 µM	N#CCCc1cccc(-c2ccc3cnc(Nc4ccc5c(c4)CCC(N4CCOCC4)CC5)nn23)c1 (centres unmarked) [Example 1148, 3-{3-[2-(7-Morpholin-4-yl-6,7,8,9-tetrahydro-5H-benzocyclohepten-2-ylamino)-pyrrolo[2,1-f][1,2,4]triazin-7-yl]-phenyl}-propionitrile]
0.1 to 1 µM	< 0.1 µM	–	–	CN1CCN(c2cccc(Nc3ncc4ccc(-c5cccc(N6CCCS6(=O)=O)c5)n4n3)c2)CC1 [Example 1509, 7-[3-(1,1-Dioxido-1,2-thiazolidin-2-yl)phenyl]-N-[3-(4-methylpiperazin-1-yl)phenyl]pyrrolo[2,1-f][1,2,4]triazin-2-amine]
